PubChem BioAssay AID743394 (Broad Institute, 2014)
Calls of active or inactive are those of the source.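 How the source made its calls: active means 40% activation versus positive control reached by fitted dose-response curve at or below highest valid tested dose; inconclusive means poor fit quality, or flat fit with activation between 30% and 70%; inactive means the rest.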

assay: inactive X chromosome reactivation in XiGFP fibroblasts, dose response, imaging, 68-5-11 mouse fibroblasts, GFP, cherry-pick (AID 743394); conditions: 68-5-11 mouse fibroblast XiGFP reporter, % GFP-positive imaging, 3 d; at 19.5 µM (top of the series);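 further: sensitizer 5-aza-dC present in the wells at 0.5 mM final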

SMILES	activation
COC(=O)Cn1cc(/C=C2\C(=O)NC(=O)N(c3ccc(OC)cc3)C2=O)c2ccccc21	0.09% (inactive)
C=CCn1c(O)c(C(C)=NCc2ccc3c(c2)OCO3)c(=O)[nH]c1=O	0.026% (inactive)
O=C(Cc1ccccn1)N1CCCCN2[C@H](C1)[C@@H](c1ccc(-c3ccccc3F)cc1)[C@@H]2CO	1.33% (inactive)

same assay, conditions: 68-5-11 mouse fibroblast XiGFP reporter, % GFP-positive imaging, 3 d; at 19.5 µM (top of the series); cells co-treated with 5-aza-dC sensitizer; scaled: neutral wells 0, ellipticine wells 100

SMILES	activation
COc1ccc(-n2c(=O)n(Cc3ccccc3)c(=O)c3[nH]cnc32)cc1	-0.053% (inactive)
CCOC(=O)c1ccc(NC(=O)C2(N3C(=O)c4ccccc4C3=O)CCCC2)cc1	0.082% (inactive)
NC(=S)Nc1ccc(Cl)cc1Cl	-0.001% (inactive)
COc1ccc(CCCc2nc3ccccc3[nH]2)cc1	-0.001% (inactive)
Oc1c(C(c2ccccc2Cl)N2CCCC2)ccc2cccnc12 (stereo unspecified)	-0.035% (inactive)
COc1ccc(-c2nnc(NC(=O)c3ccc(F)cc3)o2)cc1	-0.035% (inactive)
Cc1cc(N)ncc1[N+](=O)[O-]	0.508% (inactive)
CCN1CCc2c(sc(NC(=O)c3ccc4ccccc4c3)c2C(N)=O)C1	-0.008% (inactive)
C[C@H]1CN([C@@H](C)CO)S(=O)(=O)c2ccc(Br)cc2O[C@H]1CN(C)C(=O)c1cccnc1	-0.033% (inactive)
COc1ccc(C(=O)Nc2ccc3oc(-c4cccc(F)c4)nc3c2)cc1OC	0.002% (inactive)
C(CCCN1CCCCC1)CCN1CCCCC1	0.047% (inactive)
CN(c1ccccc1)S(=O)(=O)c1ccc(C(=O)NCC(c2ccco2)N2CCCCC2)cc1 (stereo unspecified)	-0.009% (inactive)
O=[N+]([O-])/C=C/c1ccc2c(ccn2Cc2ccccc2)c1	-0.06% (inactive)
O=C(c1ccccc1Cl)N1CCSCCS1(=O)=O	0.035% (inactive)
CSc1ccc(CNCC2CCCO2)cc1 (stereo unspecified)	0.842% (inactive)
COc1ccc(-n2nc(C#N)c(Cl)cc2=O)cc1	0.745% (inactive)
O=C(O)/C=C/C(=O)Nc1ccc(-n2nccc2C(F)(F)F)cc1	1.34% (inactive)
COc1ccc(NC(=O)N(C)[C@H]2C[C@H]3c4[nH]c5ccc(-c6ccc(OC)cc6)cc5c4CCN3C(=O)[C@H]2[C@H](C)O)cc1	0.523% (inactive)
C[C@H]1CN([C@@H](C)CO)C(=O)c2cc(NC(=O)CCCCCC(=O)Nc3ccccc3N)ccc2O[C@H]1CN(C)C(=O)Nc1ccccc1	0.04% (inactive)
COC(C(=O)NCc1ccc(C)cc1)c1ccccc1 (stereo unspecified)	0.114% (inactive)
CCOC(=O)c1ccc(NC(=O)C2CCC(CNc3c(N4CCOCC4)c(=O)c3=O)CC2)cc1 (stereo unspecified)	0.016% (inactive)

SMILES	activation
Nc1c(C(=O)O)cnn1-c1ccc([N+](=O)[O-])cc1	0.022% (inactive)
O=C(CCl)N=c1sccn1Cc1ccc(Cl)cc1Cl	0.591% (inactive)
CCCCC(CCC(=O)Nc1ccn(-c2ccccc2)n1)C(=O)O (stereo unspecified)	0% (inactive)
O=[N+]([O-])c1ccccc1-c1ccc(C(=S)N2CCN(c3ccccc3)CC2)o1	0.417% (inactive)
Cc1ccc(S(=O)(=O)N(C)c2ccc(C)c([N+](=O)[O-])c2)cc1	0.488% (inactive)
O=C1C2C3C=CC(CNS(=O)(=O)c4ccccc4[N+](=O)[O-])(O3)C2C(=O)N1c1ccccc1 (stereo unspecified)	0.059% (inactive)
COc1ccc(/C=c2/sc3nc(-c4ccccc4)c(-c4ccccc4)n3c2=O)cc1	-0.002% (inactive)
Cc1nn(-c2ccccc2)c2ncc(C(=O)c3cc(Cl)ccc3O)cc12	0.1% (inactive)
COc1ccccc1NC(=O)N[C@H]1C=C[C@@H](CC(=O)N[C@@H](C)c2ccccc2)O[C@@H]1CO	-0.011% (inactive)
COc1cc(CNc2nc3ccccc3n2C)cc(OC)c1OC	0.013% (inactive)
CCn1c(Cl)c(C=O)s/c1=N\S(=O)(=O)c1ccccc1	1.44% (inactive)
Oc1cc2c(c(Cl)c1O)CCNCC2c1ccccc1 (stereo unspecified)	-0.008% (inactive)
CNc1ncnc(Sc2ccc(Cl)cc2)c1[N+](=O)[O-]	0.297% (inactive)
Cc1cccc(CS(=O)(=O)Cc2ccc(C(=O)NCc3cccs3)o2)c1	0% (inactive)
CC[N+]1=C(C)C(C)(C)c2cc(C)ccc21	-0.032% (inactive)
COc1ccc2c(c1)C(C)=CC(C)(C)N2S(=O)(=O)c1ccc(Br)cc1	0.373% (inactive)
NNC(=O)/C(=C\c1ccc(Br)cc1)NC(=O)c1cccs1	-0.053% (inactive)
CC(=O)Oc1ccc2c(=O)c(-c3ccccc3)coc2c1	0.086% (inactive)
COc1ccc(C)c(-n2c(=O)n(Cc3ccccc3)c(=O)c3[nH]cnc32)c1	-0.006% (inactive)
CCOC(=O)C1=C(C)NC(=S)NC1/C=C/c1ccccc1 (stereo unspecified)	-0.024% (inactive)
N#Cc1ccccc1Cn1cc(/C=N/Nc2ccc([N+](=O)[O-])cn2)c2ccccc21	10.9% (inactive)

SMILES	activation
Cc1cccc(C(=O)NCc2ccc(S(N)(=O)=O)cc2)c1[N+](=O)[O-]	0.077% (inactive)
COc1ccc2c(c1)c(/C=N/Nc1nc3ccccc3[nH]1)c(C)n2C	5.21% (inactive)
CC(C)Oc1ccc(/C(O)=C2/C(=O)C(=O)N(CCN(C)C)C2c2cccs2)cc1 (stereo unspecified)	0.063% (inactive)
CO[C@@H]1CN(C)C(=O)c2ccc(NC(=O)Nc3cccc(Cl)c3)cc2OC[C@H](C)N(C(=O)Nc2c(C)noc2C)C[C@H]1C	-0.002% (inactive)
COC(=O)c1ccc(CNC(=O)COC(=O)c2cc(Cl)ccc2O)cc1	0.385% (inactive)
Cc1ccccc1-c1ccc(C2[C@@H]3CN(Cc4cocn4)C[C@H]2N3)cc1 (stereo partly specified)	-0.031% (inactive)
CC(Sc1nnc(Cc2ccccc2)o1)C(=O)Nc1ccccc1[N+](=O)[O-] (stereo unspecified)	-0.032% (inactive)
COc1cccc(CNC(=O)c2cc(S(=O)(=O)N3CCOCC3)cn2C)c1	0.576% (inactive)
O=C(NC1=C(NC2CCS(=O)(=O)C2)C(=O)c2ccccc2C1=O)c1ccccc1 (stereo unspecified)	-0.047% (inactive)
Cc1ccc(-c2[nH]c(=S)[nH]c(=O)c2C#N)cc1	-0.003% (inactive)
CC(C)c1ccc(CN2CCN(C(=O)CSc3nnnn3C3CC3)CC2)cc1	0.2% (inactive)
CC=Cc1ccc2n(c1=O)C[C@@H]1[C@@H](CO)[C@H](C(=O)NCCCN(C)C)[C@H]2N1C(=O)c1ccccc1F (mixture of isomers)	-0.01% (inactive)
C/C=C/Cn1c(SCCCc2ccccc2)nc2c1c(=O)[nH]c(=O)n2C	-0.024% (inactive)
COc1ccccc1N=Nc1c(C)[nH]n(-c2ccccc2)c1=O	-0.075% (inactive)
CC(C)NC(=O)N(C)C[C@@H]1OCCCC[C@H](C)Oc2ccc(NC(=O)Nc3ccc(C(F)(F)F)cc3)cc2C(=O)N([C@H](C)CO)C[C@@H]1C	0.005% (inactive)
C=C(C)c1cccc(C(C)(C)NC(=O)Nc2nnc(C(C)C)s2)c1	-0.035% (inactive)
CCc1ccc(CN(C)C(=O)c2cc(S(=O)(=O)N3CCOCC3)ccc2N2CCCC2)cc1	-0.007% (inactive)
O=[N+]([O-])c1ccc(Sc2nnnn2-c2ccccc2)nc1	-0.121% (inactive)
C[C@H](CO)N1C[C@H](C)[C@H](CN(C)S(=O)(=O)c2ccccc2)Oc2ccc(NS(=O)(=O)c3ccc(Cl)cc3)cc2C1=O	0.163% (inactive)
Nc1cc2c3c(cccc3c1)C(=O)N(CCN1CCCC1)C2=O	-0.037% (inactive)
O=C(c1cnccn1)N1CC(=O)N2[C@H](CO)[C@@H](c3ccc(-c4cccc(F)c4)cc3)[C@@H]2C1	-0.014% (inactive)

SMILES	activation
Cc1nn(-c2ccccc2)c(N)c1N=O	-0.053% (inactive)
CCCN(C(=O)c1ccc(-n2cncn2)c([N+](=O)[O-])c1)C1CCS(=O)(=O)C1 (stereo unspecified)	-0.007% (inactive)
Cc1ccc(S(=O)(=O)Nc2cccc3c2O[C@H](CN(C)C(=O)Nc2cccc4ccccc24)[C@H](C)CN([C@H](C)CO)C3=O)cc1	0.028% (inactive)
CCOC(=O)Nc1ccc2nc(-c3cscn3)[nH]c2c1	0.097% (inactive)
Cc1ccc(Cn2cc(/C=N/Nc3ccc([N+](=O)[O-])cn3)c3ccccc32)cc1	1.53% (inactive)
COCCN(C(=O)c1ccc2c(c1)C(=O)N(c1ccccc1Cl)C2=O)c1c(N)n(CC(C)C)c(=O)[nH]c1=O	0.738% (inactive)
CCN(CC)c1ccc(/C=C(/C#N)C(=O)NCc2ccccc2)o1	12.4% (inactive)
CCCC(=O)OCCNc1cc(Sc2nccn2C)c2nonc2c1[N+](=O)[O-]	-0.034% (inactive)
O=C(N/N=C/c1ccc([N+](=O)[O-])o1)c1cc2ccccc2o1	4.43% (inactive)
CCOC(=O)N1CCN(C(=O)Cn2ccc3c(OC)cccc3c2=O)CC1	0.07% (inactive)
CCOC(=O)Cc1csc(NC(=O)Nc2ccc(F)cc2)n1	0.472% (inactive)
Cc1ccc(S(=O)(=O)Nc2ccc3c(c2)C(=O)N([C@H](C)CO)C[C@@H](C)[C@@H](CN(C)Cc2ccc(Cl)c(Cl)c2)OCCCC[C@H](C)O3)cc1	-0.031% (inactive)
CC(=O)c1ccc(NC(=O)COC(=O)CCc2ccc(S(=O)(=O)N3CCOCC3)cc2)cc1	0.332% (inactive)
O=C(COC(=O)c1ccc(NS(=O)(=O)c2cccs2)cc1O)NC1CCCCC1	0.098% (inactive)
CC(C)CC(=O)Nc1c2c(nn1-c1ccc(F)cc1)CSC2	0.542% (inactive)
O=C1N(c2ccccc2)C[C@@H]2C[C@@H](c3cc4ccccc4o3)N3CCC[C@@]123	-0.008% (inactive)
O=C(O)c1ccccc1C1Nc2ccccc2C(=O)N1CCCN1CCOCC1 (stereo unspecified)	0.018% (inactive)
COc1cccc(CNC(=O)C(Cc2ccccc2)n2cccc2)c1 (stereo unspecified)	0.002% (inactive)
Cn1c(=O)c(C#N)c(-c2ccc(F)cc2)c2cc(C(=O)c3cc(Cl)cc(Cl)c3O)cnc21	-0.044% (inactive)

same assay, conditions: 68-5-11 mouse fibroblast XiGFP reporter, % GFP-positive imaging, 3 d; at 21 µM (top of the series); cells co-treated with 5-aza-dC sensitizer; scaled: neutral wells 0, ellipticine wells 100

SMILES	activation
COc1ccc(S(=O)(=O)N(C)C[C@@H]2OCc3cn(nn3)CCCC(=O)N([C@@H](C)CO)C[C@@H]2C)cc1	0.05% (inactive)
